# Assay results as given in paper PMC5580309, “Molecular-scale features that govern the effects of O-glycosylation on a carbohydrate-binding module” (Chemical Science, 2015).
# Bridge positions count the residues as written; N and C are the ends. Peptide text beside a SMILES is read from it. * marks the point of attachment. X2 = OC[C@H]1O[C@H](O[C@H]2[C@@H](O)[C@H](O)[C@@H](CO)O[C@@H]2*)[C@@H](O)[C@@H](O)[C@@H]1O; αMan = OC[C@H]1O[C@H](*)[C@@H](O)[C@@H](O)[C@@H]1O
# Biological target: T1, thermolysin (Bacillus thermoproteolyticus, UniProt P00800)
# T1 sequence (P00800 233-548): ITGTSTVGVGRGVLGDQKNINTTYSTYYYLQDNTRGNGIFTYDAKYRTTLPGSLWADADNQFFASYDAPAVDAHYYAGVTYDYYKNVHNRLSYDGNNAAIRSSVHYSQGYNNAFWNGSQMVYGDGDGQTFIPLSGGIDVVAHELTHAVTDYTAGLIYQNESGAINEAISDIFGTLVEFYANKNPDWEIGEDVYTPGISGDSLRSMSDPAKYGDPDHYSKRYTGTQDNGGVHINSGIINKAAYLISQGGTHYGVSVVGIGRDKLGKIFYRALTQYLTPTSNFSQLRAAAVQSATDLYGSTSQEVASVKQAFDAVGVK
# Experiment: Proteolytic stability: half-life to thermolysin degradation
# Assay type: in vitro ADME
# Conditions: for half-life: thermolysin (isolated protease), thermolysin degradation, mean of three trials ± SD, procedures as described previously (ESI ref 18); for Change in Half-Life to Thermolysin Degradation: glyco-variant minus its corresponding unglycosylated CBM (e.g. 2-1), *** not used in the correlation plot
# Protocol: All error bars reported are standard deviations of data achieved from three separate trials.
# cellulose that were determined in accordance with our procedures as described previously 18.
# The results are presented as mean of three trials ± SD. *Denotes an averaged value of four trials
SMILES,half-life,Change in Half-Life to Thermolysin Degradation
"CC[C@H](C)[C@@H]1NC(=O)CNC(=O)CNC(=O)[C@@H](NC(=O)[C@H](CCC(N)=O)NC(=O)CNC(=O)[C@H](Cc2ccc(O)cc2)NC(=O)[C@H](Cc2c[nH]cn2)NC(=O)[C@H](CO)NC(=O)[C@H](CCC(N)=O)NC(=O)[C@@H](N)[C@@H](C)O)CSSC[C@@H]2NC(=O)[C@H]([C@@H](C)O)NC(=O)[C@H]([C@@H](C)O)NC(=O)CNC(=O)[C@H](CO)NC(=O)[C@H](C)NC(=O)[C@H](CSSC[C@@H](C(=O)N[C@@H](CC(C)C)C(=O)O)NC(=O)[C@H](CCC(N)=O)NC(=O)[C@H](CO)NC(=O)[C@H](Cc3ccc(O)cc3)NC(=O)[C@H](Cc3ccc(O)cc3)NC(=O)[C@@H]3CCCN3C(=O)[C@H](CC(N)=O)NC(=O)[C@H](CC(C)C)NC(=O)[C@H](C(C)C)NC(=O)[C@H](CCC(N)=O)NC2=O)NC(=O)[C@H](C(C)C)NC(=O)[C@H]([C@@H](C)O)NC(=O)[C@@H]2CCCN2C(=O)CNC(=O)[C@H](CO)NC(=O)[C@H](Cc2ccc(O)cc2)NC(=O)CNC1=O [CBM variant 1] (H-TQSHYGQCGGIGYSGPTVCASGTTCQVLNPYYSQCL-OH; disulfide 8-25, 19-35)",13.8 ± 1.2 min,
"CC[C@H](C)[C@@H]1NC(=O)CNC(=O)CNC(=O)[C@@H](NC(=O)[C@H](CCC(N)=O)NC(=O)CNC(=O)[C@H](Cc2ccc(O)cc2)NC(=O)[C@H](Cc2c[nH]cn2)NC(=O)[C@H](CO[C@H]2O[C@H](CO)[C@@H](O)[C@H](O)[C@@H]2O)NC(=O)[C@H](CCC(N)=O)NC(=O)[C@@H](N)[C@@H](C)O)CSSC[C@@H]2NC(=O)[C@H]([C@@H](C)O)NC(=O)[C@H]([C@@H](C)O)NC(=O)CNC(=O)[C@H](CO)NC(=O)[C@H](C)NC(=O)[C@H](CSSC[C@@H](C(=O)N[C@@H](CC(C)C)C(=O)O)NC(=O)[C@H](CCC(N)=O)NC(=O)[C@H](CO)NC(=O)[C@H](Cc3ccc(O)cc3)NC(=O)[C@H](Cc3ccc(O)cc3)NC(=O)[C@@H]3CCCN3C(=O)[C@H](CC(N)=O)NC(=O)[C@H](CC(C)C)NC(=O)[C@H](C(C)C)NC(=O)[C@H](CCC(N)=O)NC2=O)NC(=O)[C@H](C(C)C)NC(=O)[C@H]([C@@H](C)O)NC(=O)[C@@H]2CCCN2C(=O)CNC(=O)[C@H](CO)NC(=O)[C@H](Cc2ccc(O)cc2)NC(=O)CNC1=O [CBM variant 2] (H-TQS(αMan)HYGQCGGIGYSGPTVCASGTTCQVLNPYYSQCL-OH; disulfide 8-25, 19-35)",65.4 ± 0.6 min,51.6 min
"CC[C@H](C)[C@@H]1NC(=O)CNC(=O)CNC(=O)[C@@H](NC(=O)[C@H](CCC(N)=O)NC(=O)CNC(=O)[C@H](Cc2ccc(O)cc2)NC(=O)[C@H](Cc2c[nH]cn2)NC(=O)[C@H](CO[C@H]2O[C@H](CO)[C@@H](O)[C@H](O)[C@@H]2O[C@H]2O[C@H](CO)[C@@H](O)[C@H](O)[C@@H]2O)NC(=O)[C@H](CCC(N)=O)NC(=O)[C@@H](N)[C@@H](C)O)CSSC[C@@H]2NC(=O)[C@H]([C@@H](C)O)NC(=O)[C@H]([C@@H](C)O)NC(=O)CNC(=O)[C@H](CO)NC(=O)[C@H](C)NC(=O)[C@H](CSSC[C@@H](C(=O)N[C@@H](CC(C)C)C(=O)O)NC(=O)[C@H](CCC(N)=O)NC(=O)[C@H](CO)NC(=O)[C@H](Cc3ccc(O)cc3)NC(=O)[C@H](Cc3ccc(O)cc3)NC(=O)[C@@H]3CCCN3C(=O)[C@H](CC(N)=O)NC(=O)[C@H](CC(C)C)NC(=O)[C@H](C(C)C)NC(=O)[C@H](CCC(N)=O)NC2=O)NC(=O)[C@H](C(C)C)NC(=O)[C@H]([C@@H](C)O)NC(=O)[C@@H]2CCCN2C(=O)CNC(=O)[C@H](CO)NC(=O)[C@H](Cc2ccc(O)cc2)NC(=O)CNC1=O [CBM variant 3] (H-TQS(X2)HYGQCGGIGYSGPTVCASGTTCQVLNPYYSQCL-OH; disulfide 8-25, 19-35)",128 ± 3.6 min,114 min
"CC[C@H](C)[C@@H]1NC(=O)CNC(=O)CNC(=O)[C@@H](NC(=O)[C@H](CCC(N)=O)NC(=O)CNC(=O)[C@H](Cc2ccc(O)cc2)NC(=O)[C@H](Cc2c[nH]cn2)NC(=O)[C@H](CO)NC(=O)[C@H](CCC(N)=O)NC(=O)[C@H](C)N)CSSC[C@@H]2NC(=O)[C@H]([C@@H](C)O)NC(=O)[C@H]([C@@H](C)O)NC(=O)CNC(=O)[C@H](CO)NC(=O)[C@H](C)NC(=O)[C@H](CSSC[C@@H](C(=O)N[C@@H](CC(C)C)C(=O)O)NC(=O)[C@H](CCC(N)=O)NC(=O)[C@H](CO)NC(=O)[C@H](Cc3ccc(O)cc3)NC(=O)[C@H](Cc3ccc(O)cc3)NC(=O)[C@@H]3CCCN3C(=O)[C@H](CC(N)=O)NC(=O)[C@H](CC(C)C)NC(=O)[C@H](C(C)C)NC(=O)[C@H](CCC(N)=O)NC2=O)NC(=O)[C@H](C(C)C)NC(=O)[C@H]([C@@H](C)O)NC(=O)[C@@H]2CCCN2C(=O)CNC(=O)[C@H](CO)NC(=O)[C@H](Cc2ccc(O)cc2)NC(=O)CNC1=O [CBM variant 4] (H-AQSHYGQCGGIGYSGPTVCASGTTCQVLNPYYSQCL-OH; disulfide 8-25, 19-35)",9.6 ± 1.2 min,
"CC[C@H](C)[C@@H]1NC(=O)CNC(=O)CNC(=O)[C@@H](NC(=O)[C@H](CCC(N)=O)NC(=O)CNC(=O)[C@H](Cc2ccc(O)cc2)NC(=O)[C@H](Cc2c[nH]cn2)NC(=O)[C@H](CO[C@H]2O[C@H](CO)[C@@H](O)[C@H](O)[C@@H]2O)NC(=O)[C@H](CCC(N)=O)NC(=O)[C@H](C)N)CSSC[C@@H]2NC(=O)[C@H]([C@@H](C)O)NC(=O)[C@H]([C@@H](C)O)NC(=O)CNC(=O)[C@H](CO)NC(=O)[C@H](C)NC(=O)[C@H](CSSC[C@@H](C(=O)N[C@@H](CC(C)C)C(=O)O)NC(=O)[C@H](CCC(N)=O)NC(=O)[C@H](CO)NC(=O)[C@H](Cc3ccc(O)cc3)NC(=O)[C@H](Cc3ccc(O)cc3)NC(=O)[C@@H]3CCCN3C(=O)[C@H](CC(N)=O)NC(=O)[C@H](CC(C)C)NC(=O)[C@H](C(C)C)NC(=O)[C@H](CCC(N)=O)NC2=O)NC(=O)[C@H](C(C)C)NC(=O)[C@H]([C@@H](C)O)NC(=O)[C@@H]2CCCN2C(=O)CNC(=O)[C@H](CO)NC(=O)[C@H](Cc2ccc(O)cc2)NC(=O)CNC1=O [CBM variant 5] (H-AQS(αMan)HYGQCGGIGYSGPTVCASGTTCQVLNPYYSQCL-OH; disulfide 8-25, 19-35)",44.4 ± 7.2 min,34.8 min
"CC[C@H](C)[C@@H]1NC(=O)CNC(=O)CNC(=O)[C@@H](NC(=O)[C@H](CCC(N)=O)NC(=O)CNC(=O)[C@H](Cc2ccc(O)cc2)NC(=O)[C@H](Cc2c[nH]cn2)NC(=O)[C@H](CO)NC(=O)[C@H](C)NC(=O)[C@@H](N)[C@@H](C)O)CSSC[C@@H]2NC(=O)[C@H]([C@@H](C)O)NC(=O)[C@H]([C@@H](C)O)NC(=O)CNC(=O)[C@H](CO)NC(=O)[C@H](C)NC(=O)[C@H](CSSC[C@@H](C(=O)N[C@@H](CC(C)C)C(=O)O)NC(=O)[C@H](CCC(N)=O)NC(=O)[C@H](CO)NC(=O)[C@H](Cc3ccc(O)cc3)NC(=O)[C@H](Cc3ccc(O)cc3)NC(=O)[C@@H]3CCCN3C(=O)[C@H](CC(N)=O)NC(=O)[C@H](CC(C)C)NC(=O)[C@H](C(C)C)NC(=O)[C@H](CCC(N)=O)NC2=O)NC(=O)[C@H](C(C)C)NC(=O)[C@H]([C@@H](C)O)NC(=O)[C@@H]2CCCN2C(=O)CNC(=O)[C@H](CO)NC(=O)[C@H](Cc2ccc(O)cc2)NC(=O)CNC1=O [CBM variant 6] (H-TASHYGQCGGIGYSGPTVCASGTTCQVLNPYYSQCL-OH; disulfide 8-25, 19-35)",9.6 ± 2.4 min,
"CC[C@H](C)[C@@H]1NC(=O)CNC(=O)CNC(=O)[C@@H](NC(=O)[C@H](CCC(N)=O)NC(=O)CNC(=O)[C@H](Cc2ccc(O)cc2)NC(=O)[C@H](Cc2c[nH]cn2)NC(=O)[C@H](CO[C@H]2O[C@H](CO)[C@@H](O)[C@H](O)[C@@H]2O)NC(=O)[C@H](C)NC(=O)[C@@H](N)[C@@H](C)O)CSSC[C@@H]2NC(=O)[C@H]([C@@H](C)O)NC(=O)[C@H]([C@@H](C)O)NC(=O)CNC(=O)[C@H](CO)NC(=O)[C@H](C)NC(=O)[C@H](CSSC[C@@H](C(=O)N[C@@H](CC(C)C)C(=O)O)NC(=O)[C@H](CCC(N)=O)NC(=O)[C@H](CO)NC(=O)[C@H](Cc3ccc(O)cc3)NC(=O)[C@H](Cc3ccc(O)cc3)NC(=O)[C@@H]3CCCN3C(=O)[C@H](CC(N)=O)NC(=O)[C@H](CC(C)C)NC(=O)[C@H](C(C)C)NC(=O)[C@H](CCC(N)=O)NC2=O)NC(=O)[C@H](C(C)C)NC(=O)[C@H]([C@@H](C)O)NC(=O)[C@@H]2CCCN2C(=O)CNC(=O)[C@H](CO)NC(=O)[C@H](Cc2ccc(O)cc2)NC(=O)CNC1=O [CBM variant 7] (H-TAS(αMan)HYGQCGGIGYSGPTVCASGTTCQVLNPYYSQCL-OH; disulfide 8-25, 19-35)",16.2 ± 3 min,6.6 min
"CC[C@H](C)[C@@H]1NC(=O)CNC(=O)CNC(=O)[C@@H](NC(=O)[C@H](CCC(N)=O)NC(=O)CNC(=O)[C@H](Cc2ccc(O)cc2)NC(=O)[C@H](C)NC(=O)[C@H](CO)NC(=O)[C@H](CCC(N)=O)NC(=O)[C@@H](N)[C@@H](C)O)CSSC[C@@H]2NC(=O)[C@H]([C@@H](C)O)NC(=O)[C@H]([C@@H](C)O)NC(=O)CNC(=O)[C@H](CO)NC(=O)[C@H](C)NC(=O)[C@H](CSSC[C@@H](C(=O)N[C@@H](CC(C)C)C(=O)O)NC(=O)[C@H](CCC(N)=O)NC(=O)[C@H](CO)NC(=O)[C@H](Cc3ccc(O)cc3)NC(=O)[C@H](Cc3ccc(O)cc3)NC(=O)[C@@H]3CCCN3C(=O)[C@H](CC(N)=O)NC(=O)[C@H](CC(C)C)NC(=O)[C@H](C(C)C)NC(=O)[C@H](CCC(N)=O)NC2=O)NC(=O)[C@H](C(C)C)NC(=O)[C@H]([C@@H](C)O)NC(=O)[C@@H]2CCCN2C(=O)CNC(=O)[C@H](CO)NC(=O)[C@H](Cc2ccc(O)cc2)NC(=O)CNC1=O [CBM variant 8] (H-TQSAYGQCGGIGYSGPTVCASGTTCQVLNPYYSQCL-OH; disulfide 8-25, 19-35)",13.2 ± 3.6 min,
